Reference: PubChem BioAssay (NCI)
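Grown in 96-well plates, cells were treated for 48 hours with each compound at five concentrations. Insufficient inhibition: endpoint recorded as highest concentration tested. At the GI50, growth is halved. TGI: concentration producing complete growth inhibition.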

What was measured:
Test in all cases: NCI anticancer screen, dose series, 48 h
[1] = system: LOX IMVI melanoma
[2] = system: OVCAR-8 ovarian
[3] = system: OVCAR-5 ovarian
[4] = system: CCRF-CEM leukemia
[5] = system: IGROV1 ovarian
[6] = system: HOP-92 NSCLC
[7] = system: HT29 colon
[8] = system: RPMI-8226 leukemia
[9] = system: M14 melanoma
[10] = system: K-562 leukemia

CCOC(=O)[C@@H](C)C[C@H](Cc1ccccc1)NC(=O)c1nc([C@@H](C[C@H](C(C)C)N(C)C(=O)[C@@H](NC(=O)[C@H]2CCCCN2C)C(C)C)OC(C)=O)sc1CCOCc1ccccc1
GI50 [1]: 60.9 nM
TGI [1]: 1.54 µM
GI50 [2]: 0.216 µM
TGI [2]: 2.08 µM
GI50 [3]: 0.246 µM
TGI [3]: 4.11 µM
GI50 [4]: 0.0795 µM
TGI [4]: > 6.52 µM
GI50 [5]: 0.0995 µM
TGI [5]: 2.81 µM
GI50 [6]: 109 nM
TGI [6]: 2.34 µM
GI50 [7]: 0.0375 µM
TGI [7]: 1.4 µM
GI50 [8]: 107 nM
TGI [8]: 2.53 µM
GI50 [9]: 68.9 nM
TGI [9]: 0.727 µM
GI50 [10]: 35.8 nM
TGI [10]: 1.92 µM

Cc1ccc(Cl)cc1Nc1nc(C(F)(F)F)ccc1C(=O)N/N=C/c1cccnc1
GI50 [1]: 1520 nM
TGI [1]: 13.6 µM
GI50 [2]: 3.05 µM
TGI [2]: 15.1 µM
GI50 [3]: 3.44 µM
TGI [3]: 17.1 µM
GI50 [4]: 4.14 µM
TGI [4]: > 100 µM
GI50 [5]: 4.22 µM
TGI [5]: 15.8 µM
GI50 [6]: 1550 nM
TGI [6]: 7.37 µM
GI50 [7]: 5.73 µM
TGI [7]: 20.7 µM
GI50 [8]: 2940 nM
TGI [8]: > 32.5 µM
GI50 [9]: 1440 nM
TGI [9]: 3.92 µM
GI50 [10]: 1710 nM
TGI [10]: > 39 µM

Cc1cccc(-c2[nH]ncc2-c2ccc3ncccc3n2)n1
GI50 [1]: 7560 nM
TGI [1]: > 25 µM
GI50 [2]: 8.54 µM
TGI [2]: > 25 µM
GI50 [3]: 9.82 µM
TGI [3]: > 25 µM
GI50 [4]: 12.4 µM
TGI [4]: > 25 µM
GI50 [5]: 13 µM
TGI [5]: > 25 µM
GI50 [6]: 10000 nM
TGI [6]: > 25 µM
GI50 [7]: 12.1 µM
TGI [7]: > 25 µM
GI50 [8]: > 15100 nM
TGI [8]: > 25 µM
GI50 [9]: 10800 nM
TGI [9]: > 25 µM
GI50 [10]: > 25000 nM
TGI [10]: > 25 µM

COc1c(C)cc(O)cc1C=O
TGI [1]: > 100 µM
TGI [2]: > 100 µM
TGI [3]: > 100 µM
TGI [4]: > 100 µM
TGI [5]: > 100 µM
TGI [6]: > 100 µM
TGI [7]: > 100 µM
TGI [8]: > 100 µM
TGI [9]: > 100 µM
TGI [10]: > 100 µM
